Consider three compounds from paper PMC3775124 (Nuclear Medicine and Biology, 2013).

One data set deals with human BCRP (Homo sapiens, UniProt Q9UNQ0). To be noted: [^14C]PhIP 2 μM; n = 1. On the procedure: (§1) For the in vitro transport studies LLC-PK1 cells transduced with human MDR1 or murine Mdr1a and respective wild-type LLC cells were used. Additionally, Madin-Darby canine kidney type II (MDCK-II) cells transduced with murine Bcrp1 or human BCRP or human MRP1 and respective wild-type MDCK-II cells were used. The cell lines were a kind gift from Piet Borst and Alfred Schinkel (The Netherlands Cancer Institute, Amsterdam, the Netherlands). Culturing of the cells was performed as described earlier. MDR1- and Mdr1a-overexpressing LLC cells were regularly tested for vincristine sulfate resistance (0.64 μM) as described before. The MDCK-II cells transduced with Bcrp1 or BCRP were regularly tested for mitoxantrone resistance (20 μM).
Sequence of human BCRP (Q9UNQ0 whole entry): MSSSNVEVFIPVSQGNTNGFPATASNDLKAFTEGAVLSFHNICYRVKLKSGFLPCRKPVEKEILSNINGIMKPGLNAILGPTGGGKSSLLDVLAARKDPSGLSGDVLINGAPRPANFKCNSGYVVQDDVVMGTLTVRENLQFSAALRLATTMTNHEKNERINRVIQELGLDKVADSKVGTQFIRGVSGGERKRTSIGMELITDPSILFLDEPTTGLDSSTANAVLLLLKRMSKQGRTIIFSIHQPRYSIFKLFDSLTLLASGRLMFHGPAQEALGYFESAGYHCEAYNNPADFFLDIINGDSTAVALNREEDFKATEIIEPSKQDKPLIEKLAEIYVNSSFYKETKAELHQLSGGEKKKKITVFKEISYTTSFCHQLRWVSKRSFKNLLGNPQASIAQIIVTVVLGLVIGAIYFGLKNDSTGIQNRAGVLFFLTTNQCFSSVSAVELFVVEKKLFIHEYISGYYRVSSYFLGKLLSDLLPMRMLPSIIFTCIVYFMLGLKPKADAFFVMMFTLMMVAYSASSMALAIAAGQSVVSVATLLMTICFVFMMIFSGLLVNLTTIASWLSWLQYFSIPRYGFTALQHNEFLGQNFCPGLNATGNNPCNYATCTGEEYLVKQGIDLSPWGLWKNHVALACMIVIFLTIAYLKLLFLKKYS
(§2) CETA was performed in triplicate as described previously. With a density of 0.3 × 10^6 cells/cm^2 LLC cells were seeded on transparent polyester membrane filters (Transwell-Clear®, 6-well, 24-mm diameter, 0.4-μm pore size, Corning Costar Corporation, Cambridge, MA, USA). […] Transport experiments were performed 5–7 days after the cells reached 100% confluence. […] Control CETA was performed with calcein AM (1 μM) for MRP1 [26] and [^14C]PhIP (2 μM) for Bcrp1/BCRP. The membrane integrity was determined by mannitol diffusion and transepithelial electrical resistance (TEER), with criteria for exclusion described earlier.

For the next data set, the target named is murine Bcrp1 (Mus musculus, UniProt Q7TMS5). The following applies: [^14C]PhIP 2 μM; n = 1. On the procedure: as §1, §2
Sequence of murine Bcrp1 (Q7TMS5 whole entry): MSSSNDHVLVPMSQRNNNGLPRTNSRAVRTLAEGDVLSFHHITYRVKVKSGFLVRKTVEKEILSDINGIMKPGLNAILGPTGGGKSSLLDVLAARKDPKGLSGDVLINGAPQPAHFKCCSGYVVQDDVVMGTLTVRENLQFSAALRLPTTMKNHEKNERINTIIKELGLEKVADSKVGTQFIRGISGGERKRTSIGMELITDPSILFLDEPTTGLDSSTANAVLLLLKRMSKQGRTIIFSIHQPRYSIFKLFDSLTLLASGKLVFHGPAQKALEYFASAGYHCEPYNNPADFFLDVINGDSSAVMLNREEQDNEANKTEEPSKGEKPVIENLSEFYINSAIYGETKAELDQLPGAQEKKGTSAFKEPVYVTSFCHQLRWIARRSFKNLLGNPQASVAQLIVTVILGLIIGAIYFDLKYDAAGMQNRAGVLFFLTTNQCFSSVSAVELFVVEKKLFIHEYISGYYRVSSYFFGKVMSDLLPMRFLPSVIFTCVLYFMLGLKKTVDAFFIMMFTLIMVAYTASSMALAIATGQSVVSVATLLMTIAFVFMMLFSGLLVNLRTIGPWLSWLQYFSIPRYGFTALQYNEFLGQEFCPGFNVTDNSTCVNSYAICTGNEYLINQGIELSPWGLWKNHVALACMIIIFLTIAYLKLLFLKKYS
The target of a further data set is T1, murine Mdr1a (Mus musculus, UniProt P21447).
T1 construct: host or cells: LLC-PK1 (porcine kidney) cells
T1 sequence (P21447 whole entry): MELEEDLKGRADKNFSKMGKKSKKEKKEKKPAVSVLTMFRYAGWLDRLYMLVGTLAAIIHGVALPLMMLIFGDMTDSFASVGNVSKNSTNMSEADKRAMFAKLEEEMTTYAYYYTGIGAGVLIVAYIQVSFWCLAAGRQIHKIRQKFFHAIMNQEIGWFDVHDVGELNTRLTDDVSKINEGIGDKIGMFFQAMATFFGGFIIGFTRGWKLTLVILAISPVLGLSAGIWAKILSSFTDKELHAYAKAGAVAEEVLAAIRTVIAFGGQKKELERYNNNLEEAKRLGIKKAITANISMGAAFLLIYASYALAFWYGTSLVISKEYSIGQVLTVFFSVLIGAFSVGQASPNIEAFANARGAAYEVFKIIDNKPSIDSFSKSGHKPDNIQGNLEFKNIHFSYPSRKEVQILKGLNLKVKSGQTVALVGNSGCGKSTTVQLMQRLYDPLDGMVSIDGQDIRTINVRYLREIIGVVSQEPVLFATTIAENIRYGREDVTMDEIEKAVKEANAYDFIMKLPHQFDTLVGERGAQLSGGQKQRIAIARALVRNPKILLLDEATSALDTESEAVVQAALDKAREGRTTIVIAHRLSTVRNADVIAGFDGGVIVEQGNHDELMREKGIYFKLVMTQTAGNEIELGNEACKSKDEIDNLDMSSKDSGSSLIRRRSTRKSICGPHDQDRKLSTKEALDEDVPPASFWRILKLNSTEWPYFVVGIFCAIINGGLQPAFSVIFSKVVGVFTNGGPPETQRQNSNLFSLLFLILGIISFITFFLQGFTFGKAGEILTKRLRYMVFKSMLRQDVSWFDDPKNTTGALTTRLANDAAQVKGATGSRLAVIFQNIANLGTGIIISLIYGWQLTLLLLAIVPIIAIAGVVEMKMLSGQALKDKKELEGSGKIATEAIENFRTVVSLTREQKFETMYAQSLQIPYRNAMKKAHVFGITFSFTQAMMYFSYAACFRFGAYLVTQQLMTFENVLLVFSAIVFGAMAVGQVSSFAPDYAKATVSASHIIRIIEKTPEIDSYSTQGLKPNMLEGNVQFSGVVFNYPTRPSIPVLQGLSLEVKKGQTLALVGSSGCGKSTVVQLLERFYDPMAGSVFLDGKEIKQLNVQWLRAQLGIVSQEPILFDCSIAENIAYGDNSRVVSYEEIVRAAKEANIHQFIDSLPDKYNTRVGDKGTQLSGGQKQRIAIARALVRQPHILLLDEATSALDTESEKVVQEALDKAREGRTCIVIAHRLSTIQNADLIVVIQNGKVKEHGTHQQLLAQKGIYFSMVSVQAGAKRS
Description: CETA in LLC cells transduced with murine Mdr1a. The data set is classed as in vitro ADME. To be noted: tariquidar 0.5 μM; Mdr1a-overexpressing LLC cells.

On the set-up of data set [1]: method as in PMID 19910428. The following applies: cited from earlier work.
For the next data set, the system named is cerebral Pgp. Details: method as in PMID 20016890. The following applies: tariquidar 15 mg/kg; rats; cited from earlier work.
The target of another data set is human MRP1 (Homo sapiens, UniProt P33527). Description: CETA in MDCK cells transduced with human MRP1. The following applies: calcein AM 1 μM; n = 1. On the procedure:
as §1, §2

Sequence of human MRP1 (P33527 whole entry): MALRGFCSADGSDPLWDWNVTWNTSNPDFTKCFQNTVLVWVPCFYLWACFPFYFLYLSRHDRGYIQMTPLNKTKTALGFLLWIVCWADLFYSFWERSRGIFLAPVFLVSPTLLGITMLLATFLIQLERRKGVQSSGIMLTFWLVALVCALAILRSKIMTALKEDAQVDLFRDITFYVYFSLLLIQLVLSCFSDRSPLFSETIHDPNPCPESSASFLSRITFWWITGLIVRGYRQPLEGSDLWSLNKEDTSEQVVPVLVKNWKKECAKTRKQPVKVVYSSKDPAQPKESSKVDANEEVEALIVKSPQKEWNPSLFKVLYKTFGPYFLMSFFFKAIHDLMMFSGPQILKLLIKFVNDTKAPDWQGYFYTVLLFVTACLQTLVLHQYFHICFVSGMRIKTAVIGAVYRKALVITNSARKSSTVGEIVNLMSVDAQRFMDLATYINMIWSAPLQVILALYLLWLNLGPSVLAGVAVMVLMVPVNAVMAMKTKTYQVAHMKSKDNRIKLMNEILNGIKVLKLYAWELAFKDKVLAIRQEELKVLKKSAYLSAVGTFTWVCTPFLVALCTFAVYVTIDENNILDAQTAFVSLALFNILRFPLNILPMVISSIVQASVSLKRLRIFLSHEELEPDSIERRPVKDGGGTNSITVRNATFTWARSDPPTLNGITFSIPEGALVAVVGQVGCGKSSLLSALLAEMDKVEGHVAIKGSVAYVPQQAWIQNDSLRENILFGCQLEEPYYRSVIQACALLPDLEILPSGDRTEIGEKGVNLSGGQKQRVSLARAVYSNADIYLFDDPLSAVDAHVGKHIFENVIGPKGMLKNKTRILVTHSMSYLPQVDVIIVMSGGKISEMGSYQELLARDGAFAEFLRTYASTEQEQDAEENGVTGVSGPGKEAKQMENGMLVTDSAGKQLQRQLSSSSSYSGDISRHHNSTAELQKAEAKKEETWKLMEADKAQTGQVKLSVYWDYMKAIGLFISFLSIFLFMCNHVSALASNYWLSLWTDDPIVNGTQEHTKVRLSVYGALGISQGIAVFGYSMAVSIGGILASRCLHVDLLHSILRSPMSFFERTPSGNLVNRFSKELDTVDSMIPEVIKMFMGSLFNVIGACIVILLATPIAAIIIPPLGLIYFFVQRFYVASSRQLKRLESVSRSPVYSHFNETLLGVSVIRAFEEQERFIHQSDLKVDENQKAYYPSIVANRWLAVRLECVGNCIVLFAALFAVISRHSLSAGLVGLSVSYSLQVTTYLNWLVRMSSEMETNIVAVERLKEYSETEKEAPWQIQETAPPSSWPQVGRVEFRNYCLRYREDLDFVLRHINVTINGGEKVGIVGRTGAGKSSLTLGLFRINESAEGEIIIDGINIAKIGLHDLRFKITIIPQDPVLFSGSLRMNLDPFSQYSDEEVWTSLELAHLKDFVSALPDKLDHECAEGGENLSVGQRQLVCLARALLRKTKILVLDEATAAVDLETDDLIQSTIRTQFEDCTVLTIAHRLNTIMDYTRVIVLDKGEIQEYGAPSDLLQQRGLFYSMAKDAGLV

As to `Cn1c(N)nc2ncc(-c3ccccc3)cc21` [[^14C]PhIP, [^14C]2-amino-1-methyl-6-phenylimidazo[4,5-b]pyridine], the “control CETA for BCRP function” value on human BCRP was “functional”. Also, the “control CETA for Bcrp1 function” value at murine Bcrp1 is “functional”.
Consider `COc1cc2c(cc1OC)CN(CCc1ccc(NC(=O)c3cc(OC)c(OC)cc3NC(=O)c3cnc4ccccc4c3)cc1)CC2` [tariquidar, Tariquidar dimesylate], for which the “inhibition of [^3H]verapamil transport” value at murine Mdr1a is listed as “almost completely inhibited”. Moreover, the “influence on (R)-[^11C]verapamil metabolism and plasma protein binding” value in data set [1] is reported as “does not influence”. Moreover, in the data set on cerebral Pgp, the “inhibition of cerebral Pgp” value was “complete inhibition”.
On to calcein AM, for which the “control CETA for MRP1 function” value on human MRP1 is on record as “functional MRP1 was present”.
